Results reported in ChEMBL document CHEMBL5252520, “Inhibition of phospho-MurNAc-pentapeptide translocase (MraY) by nucleoside natural product antibiotics, bacteriophage ϕX174 lysis protein E, and cationic antibacterial peptides” (Bioorg Med Chem, 2016).
≈ marks a conversion by molar mass, not a printed value. Residues, ends and D or L forms follow the SMILES beside them.

How the values were obtained:
[1] = molecular target: T1, Phospho-N-acetylmuramoyl-pentapeptide-transferase (Bacillus subtilis (strain 168), UniProt Q03521); test: Inhibition of Bacillus subtilis MraY
T1 sequence (Q03521 whole entry): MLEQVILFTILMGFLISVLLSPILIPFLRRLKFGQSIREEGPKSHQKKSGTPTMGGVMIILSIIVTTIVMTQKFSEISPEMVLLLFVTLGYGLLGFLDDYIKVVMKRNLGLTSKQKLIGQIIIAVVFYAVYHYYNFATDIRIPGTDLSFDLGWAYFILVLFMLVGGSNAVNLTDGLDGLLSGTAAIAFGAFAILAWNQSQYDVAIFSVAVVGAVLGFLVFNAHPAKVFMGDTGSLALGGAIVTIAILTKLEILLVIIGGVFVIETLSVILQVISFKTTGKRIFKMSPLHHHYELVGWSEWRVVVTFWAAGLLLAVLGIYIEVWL

[2] = Inhibition of bacterial MraY; parameters: species or system Bacteria
[3] = molecular target: T2, Decaprenyl-phosphate N-acetylglucosaminephosphotransferase (Mycolicibacterium smegmatis (strain ATCC 700084 / mc(2)155) (Mycobacteriumsmegmatis), UniProt A0R211); test: Inhibition of Mycobacterium smegmatis ATCC 607 WecA
T2 sequence (A0R211 whole entry): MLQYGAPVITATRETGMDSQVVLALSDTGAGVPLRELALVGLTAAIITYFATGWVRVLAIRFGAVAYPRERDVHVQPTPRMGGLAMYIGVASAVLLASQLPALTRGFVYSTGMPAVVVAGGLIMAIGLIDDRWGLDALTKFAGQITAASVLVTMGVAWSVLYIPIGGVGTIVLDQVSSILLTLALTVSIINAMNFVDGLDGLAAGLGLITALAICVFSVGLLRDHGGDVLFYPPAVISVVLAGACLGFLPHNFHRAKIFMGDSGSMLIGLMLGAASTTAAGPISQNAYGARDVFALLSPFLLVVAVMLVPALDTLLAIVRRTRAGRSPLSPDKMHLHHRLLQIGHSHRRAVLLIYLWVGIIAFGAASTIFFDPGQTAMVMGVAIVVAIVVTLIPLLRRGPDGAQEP

[4] = Inhibition of Bacillus subtilis TagO
Pseudomonas aeruginosa = test: Antibacterial activity against Pseudomonas aeruginosa H103 assessed as reduction in bacterial growth; format: functional
Escherichia coli [5] = test: Antibacterial activity against Escherichia coli assessed as reduction in bacterial growth; format: functional
[6] = Inhibition of Campylobacter jejuni PgIC expressed in Escherichia coli by affinity chromatography
[7] = molecular target: T3, Phospho-N-acetylmuramoyl-pentapeptide-transferase (Escherichia coli, UniProt E2QF15); test: Inhibition of recombinant Escherichia coli MraY by fluorescence based analysis
T3 sequence (E2QF15 whole entry): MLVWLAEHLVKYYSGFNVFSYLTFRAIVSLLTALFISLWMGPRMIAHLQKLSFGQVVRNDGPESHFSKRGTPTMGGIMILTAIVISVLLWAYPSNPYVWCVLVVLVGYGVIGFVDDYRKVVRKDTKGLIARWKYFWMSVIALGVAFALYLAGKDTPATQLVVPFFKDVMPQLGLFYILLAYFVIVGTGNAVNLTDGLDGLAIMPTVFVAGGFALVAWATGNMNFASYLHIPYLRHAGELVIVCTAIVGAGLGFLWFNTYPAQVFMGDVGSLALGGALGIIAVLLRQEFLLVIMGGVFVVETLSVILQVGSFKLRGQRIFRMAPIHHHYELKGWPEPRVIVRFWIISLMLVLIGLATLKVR

Escherichia coli [8] = test: Antibacterial activity against Escherichia coli assessed as inhibition of bacterial growth; format: functional

Work on `O=C(O)c1c(Cl)c(Cl)c(Cl)c(Cl)c1-c1c2cc(Br)c(=O)c(Br)c-2oc2c(Br)c(O)c(Br)cc12` yielded an IC50 [1] of 850 µM and an IC50 [2] of 32 µM.

`CC[C@H](C)[C@H](N)C(=O)N[C@@H](CC(C)C)C(=O)N1CCC[C@H]1C(=O)N[C@@H](Cc1c[nH]c2ccccc12)C(=O)N[C@@H](CCCCN)C(=O)N[C@@H](Cc1c[nH]c2ccccc12)C(=O)N1CCC[C@H]1C(=O)N[C@@H](Cc1c[nH]c2ccccc12)C(=O)N[C@@H](Cc1c[nH]c2ccccc12)C(=O)N1CCC[C@H]1C(=O)N[C@@H](Cc1c[nH]c2ccccc12)C(=O)N[C@@H](CCCN=C(N)N)C(=O)N[C@@H](CCCN=C(N)N)C(N)=O` showed an IC50 [2] of 90 µM.

In the case of `CCCCc1ccc(NC(=O)C2=CCN(C)[C@@H]([C@H](O[C@@H]3O[C@H](CN)[C@@H](O)[C@H]3O)[C@H]3O[C@@H](n4ccc(=O)[nH]c4=O)[C@H](O)[C@@H]3O)C(=O)N2C)cc1`, the IC50 [3] is reported as 0.0581 µM.

For `NC[C@H]1O[C@@H](O[C@@H](Cn2cc(CCCCCO)nn2)[C@H]2O[C@@H](n3ccc(=O)[nH]c3=O)[C@H](O)[C@@H]2O)[C@H](O)[C@@H]1O`, the IC50 [4] was 0.05 µg/mL (≈ 0.0922 µM).

Work on `CO[C@@H]1[C@@H](OC)[C@H](C)O[C@@H](OC(=O)C[C@@H](C)CC(=O)O[C@@H](CCCCCCCCCCC(C)C)CC(=O)O[C@H]2CN(C)[C@@H]([C@H](O[C@@H]3O[C@H](CN)[C@@H](O)[C@H]3O)[C@H]3O[C@@H](n4ccc(=O)[nH]c4=O)[C@H](O)[C@@H]3O)C(=O)N(C)[C@@H]2C(=O)O)[C@@H]1OC` yielded an IC50 [1] of 100 µM.

With `CCCCCCCCOC(=O)[C@H](Cc1c[nH]c2ccccc12)NC(=O)[C@@H](N)CCCNC(=N)N` the MIC (Pseudomonas aeruginosa) was 40 µg/mL (≈ 84.6 µM), the MIC (Escherichia coli [5]) was 31 µg/mL (≈ 65.6 µM) and the IC50 [2] was > 1000 µM.

Compound `CC(C)C[C@H](NC(=O)[C@H](Cc1ccccc1)NC(=O)[C@@H]1CCCN1C(=O)[C@H](Cc1c[nH]c2ccccc12)NC(=O)[C@H](Cc1c[nH]c2ccccc12)NC(=O)[C@H](Cc1c[nH]c2ccccc12)NC(=O)[C@@H]1CCCN1C(=O)[C@H](Cc1ccccc1)NC(=O)[C@H](CCCNC(=N)N)NC(=O)[C@H](CCCNC(=N)N)NC(=O)[C@@H](N)C(C)C)C(=O)N[C@@H](CCCNC(=N)N)C(=O)N[C@@H](CCCNC(=N)N)C(=O)O` has an MIC (Pseudomonas aeruginosa) of 1 µg/mL (≈ 0.526 µM) and an MIC (Escherichia coli [5]) of 20 µg/mL (≈ 10.5 µM).

Work on `CCCCCCCCOC(=O)[C@H](Cc1c[nH]c2ccccc12)NC(=O)CN` yielded an IC50 [2] of 790 µM.

In the case of `CSCC[C@H](NC(=O)N[C@@H](Cc1cccc(O)c1)C(=O)O)C(=O)N[C@@H](C(=O)N/C=C1\C[C@@H](O)[C@H](n2ccc(=O)[nH]c2=O)O1)[C@H](C)N(C)C(=O)[C@@H](N)Cc1cccc(O)c1`, the IC50 [6] is reported as 40 µM.

Compound `CC(C)[C@H](NC(=O)N[C@H](C(=O)N[C@H](C(=O)NCCCN[C@@H](C[C@H]1O[C@@H](n2ccc(=O)[nH]c2=O)[C@H](O)[C@@H]1O)C(=O)O)[C@@H](O)C(C)C)[C@@H]1CCNC(=N)N1)C(=O)O` has an IC50 [7] of 2 µM.

`CC(=O)N[C@@H](CCCNC(=N)N)C(=O)N[C@@H](CCCNC(=N)N)C(=O)N[C@@H](Cc1c[nH]c2ccccc12)C(=O)N[C@@H](Cc1c[nH]c2ccccc12)C(=O)N[C@@H](CS)C(=O)N[C@@H](Cc1ccccc1)C(=O)O` (Ac-RRWWCF-OH) gave an MIC (Pseudomonas aeruginosa) of 45 µg/mL (≈ 45.2 µM) and an MIC (Escherichia coli [5]) of 20 µg/mL (≈ 20.1 µM).

Compound `CSCC[C@H](NC(=O)[C@H](CCCNC(=N)N)NC(=O)[C@H](Cc1c[nH]c2ccccc12)NC(=O)[C@H](CCC(N)=O)NC(=O)[C@H](Cc1c[nH]c2ccccc12)NC(=O)[C@H](CCCNC(=N)N)NC(=O)[C@H](CCCNC(=N)N)NC(=O)[C@H](CS)NC(=O)[C@H](CCCCN)NC(=O)[C@@H](N)CCC(=O)O)C(=O)N[C@@H](CCCCN)C(=O)N[C@@H](CCCCN)C(=O)N[C@@H](CC(C)C)C(=O)NCC(=O)O` (H-EKCRRWQWRMKKLG-OH) has an MIC (Escherichia coli [5]) of 24 µg/mL (≈ 12.6 µM).

`CC(C)[C@H](NC(=O)[C@@H](NC(=O)[C@H](Cc1c[nH]c2ccccc12)NC(=O)[C@H](CCCNC(=N)N)NC(=O)[C@H](Cc1c[nH]c2ccccc12)NC(=O)[C@H](Cc1c[nH]c2ccccc12)NC(=O)[C@H](CCCCN)NC(=O)[C@H](Cc1c[nH]c2ccccc12)NC(=O)[C@H](Cc1c[nH]c2ccccc12)NC(=O)[C@H](CCCCN)NC(=O)CN)[C@@H](C)O)C(=O)N1CCC[C@H]1C(=O)N[C@@H](Cc1ccccc1)C(=O)O` (H-GKWWKWWRWTVPF-OH) gave an MIC (Escherichia coli [5]) of 7 µg/mL (≈ 3.76 µM).

`CC(C)C[C@H](NC(=O)CNC(=O)[C@H](Cc1c[nH]c2ccccc12)NC(=O)CN)C(=O)N[C@@H](Cc1c[nH]c2ccccc12)C(=O)O` (H-GWGLW-OH) showed an IC50 [2] of 209 µM.

Compound `CC[C@H](C)[C@H](N)C(=O)N[C@@H](CC(C)C)C(=O)N[C@@H](CCCNC(=N)N)C(=O)N[C@@H](Cc1c[nH]c2ccccc12)C(=O)N1CCC[C@H]1C(=O)N[C@@H](Cc1c[nH]c2ccccc12)C(=O)N[C@@H](Cc1c[nH]c2ccccc12)C(=O)N1CCC[C@H]1C(=O)N[C@@H](Cc1c[nH]c2ccccc12)C(=O)N[C@@H](CCCNC(=N)N)C(=O)N[C@@H](CCCNC(=N)N)C(=O)N[C@@H](CCCCN)C(=O)O` (H-ILRWPWWPWRRK-OH) has an MIC (Pseudomonas aeruginosa) of 19 µg/mL (≈ 10.7 µM), an MIC (Escherichia coli [5]) of 38 µg/mL (≈ 21.3 µM) and an IC50 [2] of 50 µM.

With `CC[C@H](C)[C@H](NC(=O)[C@H](CCCCN)NC(=O)[C@H](CCCCN)NC(=O)[C@H](Cc1ccccc1)NC(=O)[C@H](CC(C)C)NC(=O)[C@H](CCCCN)NC(=O)[C@H](Cc1c[nH]c2ccccc12)NC(=O)[C@@H](N)CCCCN)C(=O)N[C@@H](CCC(=O)O)C(=O)N[C@@H](CCCCN)C(=O)O` (H-KWKLFKKIEK-OH) the MIC (Pseudomonas aeruginosa) was 5 µg/mL (≈ 3.71 µM) and the MIC (Escherichia coli [5]) was 1 µg/mL (≈ 0.742 µM).

Work on `CSCC[C@H](N)C(=O)N[C@H](C(=O)N[C@@H](CCCNC(=N)N)C(=O)N[C@@H](Cc1c[nH]c2ccccc12)C(=O)N[C@H](C(=O)N[C@@H](CC(C)C)C(=O)N[C@@H](Cc1c[nH]c2ccccc12)C(=O)N[C@@H](CC(=O)O)C(=O)N[C@H](C(=O)N[C@@H](CC(C)C)C(=O)N[C@@H](C)C(=O)N[C@@H](Cc1ccccc1)C(=O)N[C@@H](CC(C)C)C(=O)N[C@@H](CC(C)C)C(=O)N[C@@H](CC(C)C)C(=O)O)[C@@H](C)O)[C@@H](C)O)C(C)C` (H-MVRWTLWDTLAFLLL-OH) yielded an IC50 [2] of 0.8 µM.

Work on `CC(C)C[C@H](NC(=O)CNC(=O)CNC(=O)[C@@H](N)CCCNC(=N)N)C(=O)N[C@@H](Cc1c[nH]c2ccccc12)C(=O)O` (H-RGGLW-OH) yielded an IC50 [2] of 210 µM.

`CC[C@H](C)[C@H](NC(=O)[C@H](Cc1c[nH]c2ccccc12)NC(=O)[C@@H](NC(=O)[C@@H](NC(=O)[C@H](Cc1c[nH]c2ccccc12)NC(=O)[C@H](CCCNC(=N)N)NC(=O)[C@@H](N)CCCNC(=N)N)[C@@H](C)CC)C(C)C)C(=O)N[C@@H](CCCNC(=N)N)C(=O)O` (H-RRWIVWIR-OH) showed an MIC (Pseudomonas aeruginosa) of 8 µg/mL (≈ 6.75 µM) and an MIC (Escherichia coli [8]) of 2 µg/mL (≈ 1.69 µM).

Compound `N=C(N)NCCC[C@H](N)C(=O)N[C@@H](Cc1c[nH]c2ccccc12)C(=O)NCC(=O)NCC(=O)N[C@@H](Cc1c[nH]c2ccccc12)C(=O)O` (H-RWGGW-OH) has an IC50 [2] of 233 µM.

In the case of `CC(C)C[C@H](NC(=O)CNC(=O)[C@H](Cc1c[nH]c2ccccc12)NC(=O)[C@@H](N)CCCNC(=N)N)C(=O)NCC(=O)O` (H-RWGLG-OH), the IC50 [2] is reported as 274 µM.

`CC[C@H](C)[C@H](NC(=O)[C@H](CCCNC(=N)N)NC(=O)[C@H](Cc1c[nH]c2ccccc12)NC(=O)[C@@H](NC(=O)[C@@H](NC(=O)[C@H](CC(C)C)NC(=O)[C@H](Cc1c[nH]c2ccccc12)NC(=O)[C@H](CCCNC(=N)N)NC(=O)[C@H](CCC(N)=O)NC(=O)[C@@H](N)C(C)C)[C@@H](C)CC)C(C)C)C(=O)N[C@@H](CCCNC(=N)N)C(=O)N[C@@H](CCCCN)C(=O)O` (H-VQRWLIVWRIRK-OH) showed an MIC (Escherichia coli [8]) of 8 µg/mL (≈ 4.84 µM) and an IC50 [2] of 75 µM.
